Measurements: the supplement of paper PMC11208160

Experiment: recombinant barcode read abundance after kanamycin selection (control-corrected) (log10(CPM+1)); higher = more efficient recombination; sequences stand for … in AGTGCAGAGAAAATCGGCCAGTTTTCTCTGCCTGCAGTCCGCATGCCGT…ATTTATGCAGCGGACTGCCTTTCTCCCAAAGTGATAAACCGGACAGTATCATGGACCGGTTTTCCCGGTAATCCGTATTTGCAAGGTTGGTTTCACT; site = the 11-nt target
Outline: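 Pooled oligos, each joining a target to an IS621 bridge RNA target-binding loop, were cloned and co-electroporated with a donor plasmid into E. coli. Selective plates carried chloramphenicol/ampicillin/kanamycin and 0.1 mM IPTG, while chloramphenicol/ampicillin LB agar served as control, with two replicates of each. Recombination efficiency rests on averaged, control-corrected counts per million of barcodes at recombinant junctions, shown as log10(CPM+1).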

| Sequence | recombinant barcode read abundance (log10) |
| --- | --- |
| TAGAGGGACTGGGTTCTAACCTGTTGCGGAG [TAGAGGGCTCC_LTGcore_AC_RTGcore_CT] (site TAGAGGGCTCC) (LTG core: AC, RTG core: CT) | 0.265 |
| TAGAGGGCTTGGGTTCTAACCTGTTGCGGCG [TAGAGGGCTCC_LTGcore_CT_RTGcore_CG] (site TAGAGGGCTCC) (LTG core: CT, RTG core: CG) | 0.972 |
| TAGAGGGCTTGGGTTCTAACCTGTTGCGGGC [TAGAGGGCTCC_LTGcore_CT_RTGcore_GC] (site TAGAGGGCTCC) (LTG core: CT, RTG core: GC) | 1.36 |
| TAGAGGGCTTGGGTTCTAACCTGTTGCGGGG [TAGAGGGCTCC_LTGcore_CT_RTGcore_CC] (site TAGAGGGCTCC) (LTG core: CT, RTG core: CC) | 0.241 |
| TAGAGGGCTTGGGTTCTAACCTGTTGCGGTA [TAGAGGGCTCC_LTGcore_CT_RTGcore_TA] (site TAGAGGGCTCC) (LTG core: CT, RTG core: TA) | 0.144 |
| TAGAGGGGATGGGTTCTAACCTGTTGCGGTC [TAGAGGGCTCC_LTGcore_GA_RTGcore_GA] (site TAGAGGGCTCC) (LTG core: GA, RTG core: GA) | 0.0627 |
| TAGAGGGGCTGGGTTCTAACCTGTTGCGGAG [TAGAGGGCTCC_LTGcore_GC_RTGcore_CT] (site TAGAGGGCTCC) (LTG core: GC, RTG core: CT) | 0.284 |
| TAGAGGGTCTGGGTTCTAACCTGTTGCGGAG [TAGAGGGCTCC_LTGcore_TC_RTGcore_CT] (site TAGAGGGCTCC) (LTG core: TC, RTG core: CT) | 0.506 |
| TAGAGGGTGTGGGTTCTAACCTGTTGCGGCA [TAGAGGGCTCC_LTGcore_TG_RTGcore_TG] (site TAGAGGGCTCC) (LTG core: TG, RTG core: TG) | 0.623 |
| TCGCGACAGTGGGTTCTAACCTGTTGCCGAG [TCGCGACCTCG_LTGcore_AG_RTGcore_CT] (site TCGCGACCTCG) (LTG core: AG, RTG core: CT) | 0.161 |
| TCGCGACCTTGGGTTCTAACCTGTTGCCGAA [TCGCGACCTCG_LTGcore_CT_RTGcore_TT] (site TCGCGACCTCG) (LTG core: CT, RTG core: TT) | 0.666 |
| TCGCGACCTTGGGTTCTAACCTGTTGCCGAG [TCGCGACCTCG_LTGcore_CT_RTGcore_CT] (site TCGCGACCTCG) (LTG core: CT, RTG core: CT) | 1.15 |
| TCGCGACGCTGGGTTCTAACCTGTTGCCGGC [TCGCGACCTCG_LTGcore_GC_RTGcore_GC] (site TCGCGACCTCG) (LTG core: GC, RTG core: GC) | 0.0326 |
| TCGCGACGGTGGGTTCTAACCTGTTGCCGCC [TCGCGACCTCG_LTGcore_GG_RTGcore_GG] (site TCGCGACCTCG) (LTG core: GG, RTG core: GG) | 0.0807 |
| TCGCGACTATGGGTTCTAACCTGTTGCCGTA [TCGCGACCTCG_LTGcore_TA_RTGcore_TA] (site TCGCGACCTCG) (LTG core: TA, RTG core: TA) | 0.139 |
| TCTACCCCTTGGGTTCTAACCTGTTGCTGCA [TCTACCCCTCA_LTGcore_CT_RTGcore_TG] (site TCTACCCCTCA) (LTG core: CT, RTG core: TG) | 0.217 |
| TCTACCCCTTGGGTTCTAACCTGTTGCTGGC [TCTACCCCTCA_LTGcore_CT_RTGcore_GC] (site TCTACCCCTCA) (LTG core: CT, RTG core: GC) | 0.129 |
| TCTACCCGCTGGGTTCTAACCTGTTGCTGAG [TCTACCCCTCA_LTGcore_GC_RTGcore_CT] (site TCTACCCCTCA) (LTG core: GC, RTG core: CT) | 0.045 |
| TCTACCCGTTGGGTTCTAACCTGTTGCTGAG [TCTACCCCTCA_LTGcore_GT_RTGcore_CT] (site TCTACCCCTCA) (LTG core: GT, RTG core: CT) | 0.149 |
| TCTACCCTATGGGTTCTAACCTGTTGCTGTA [TCTACCCCTCA_LTGcore_TA_RTGcore_TA] (site TCTACCCCTCA) (LTG core: TA, RTG core: TA) | 0.0877 |
| TCTACCCTTTGGGTTCTAACCTGTTGCTGAA [TCTACCCCTCA_LTGcore_TT_RTGcore_TT] (site TCTACCCCTCA) (LTG core: TT, RTG core: TT) | 0.0207 |
| TCTACCCTTTGGGTTCTAACCTGTTGCTGAG [TCTACCCCTCA_LTGcore_TT_RTGcore_CT] (site TCTACCCCTCA) (LTG core: TT, RTG core: CT) | 0.0279 |
| TGATACCAGTGGGTTCTAACCTGTTGCGTAG [TGATACCCTAC_LTGcore_AG_RTGcore_CT] (site TGATACCCTAC) (LTG core: AG, RTG core: CT) | 0.0989 |

| Sequence | recombinant barcode read abundance (log10) |
| --- | --- |
| TGATACCATTGGGTTCTAACCTGTTGCGTAG [TGATACCCTAC_LTGcore_AT_RTGcore_CT] (site TGATACCCTAC) (LTG core: AT, RTG core: CT) | 0.0337 |
| TGATACCCGTGGGTTCTAACCTGTTGCGTAG [TGATACCCTAC_LTGcore_CG_RTGcore_CT] (site TGATACCCTAC) (LTG core: CG, RTG core: CT) | 0.907 |
| TGATACCCGTGGGTTCTAACCTGTTGCGTCG [TGATACCCTAC_LTGcore_CG_RTGcore_CG] (site TGATACCCTAC) (LTG core: CG, RTG core: CG) | 0.0552 |
| TGATACCCTTGGGTTCTAACCTGTTGCGTTG [TGATACCCTAC_LTGcore_CT_RTGcore_CA] (site TGATACCCTAC) (LTG core: CT, RTG core: CA) | 1.25 |
| TGATACCGCTGGGTTCTAACCTGTTGCGTGC [TGATACCCTAC_LTGcore_GC_RTGcore_GC] (site TGATACCCTAC) (LTG core: GC, RTG core: GC) | 0.107 |
| TGATACCGGTGGGTTCTAACCTGTTGCGTCC [TGATACCCTAC_LTGcore_GG_RTGcore_GG] (site TGATACCCTAC) (LTG core: GG, RTG core: GG) | 0.115 |
| TGATACCTGTGGGTTCTAACCTGTTGCGTAG [TGATACCCTAC_LTGcore_TG_RTGcore_CT] (site TGATACCCTAC) (LTG core: TG, RTG core: CT) | 0.064 |
| TGTATTCCCTGGGTTCTAACCTGTTGCCTGG [TGTATTCCTAG_LTGcore_CC_RTGcore_CC] (site TGTATTCCTAG) (LTG core: CC, RTG core: CC) | 0.267 |
| TGTATTCCTTGGGTTCTAACCTGTTGCCTAT [TGTATTCCTAG_LTGcore_CT_RTGcore_AT] (site TGTATTCCTAG) (LTG core: CT, RTG core: AT) | 0.192 |
| TGTATTCCTTGGGTTCTAACCTGTTGCCTCC [TGTATTCCTAG_LTGcore_CT_RTGcore_GG] (site TGTATTCCTAG) (LTG core: CT, RTG core: GG) | 0.364 |
| TGTATTCCTTGGGTTCTAACCTGTTGCCTGT [TGTATTCCTAG_LTGcore_CT_RTGcore_AC] (site TGTATTCCTAG) (LTG core: CT, RTG core: AC) | 0.0232 |
| TGTATTCGATGGGTTCTAACCTGTTGCCTTC [TGTATTCCTAG_LTGcore_GA_RTGcore_GA] (site TGTATTCCTAG) (LTG core: GA, RTG core: GA) | 0.138 |
| TGTATTCGGTGGGTTCTAACCTGTTGCCTCC [TGTATTCCTAG_LTGcore_GG_RTGcore_GG] (site TGTATTCCTAG) (LTG core: GG, RTG core: GG) | 0.0849 |
| TGTATTCGTTGGGTTCTAACCTGTTGCCTAC [TGTATTCCTAG_LTGcore_GT_RTGcore_GT] (site TGTATTCCTAG) (LTG core: GT, RTG core: GT) | 0.00818 |
| TGTATTCTATGGGTTCTAACCTGTTGCCTTA [TGTATTCCTAG_LTGcore_TA_RTGcore_TA] (site TGTATTCCTAG) (LTG core: TA, RTG core: TA) | 0.0243 |
| TGTATTCTTTGGGTTCTAACCTGTTGCCTAG [TGTATTCCTAG_LTGcore_TT_RTGcore_CT] (site TGTATTCCTAG) (LTG core: TT, RTG core: CT) | 0.242 |
| TTATAAACTTGGGTTCTAACCTGTTGCCTAG [TTATAAACTAG_LTGcore_CT_RTGcore_CT] (site TTATAAACTAG) (LTG core: CT, RTG core: CT) | 0.894 |
| TTATAAACTTGGGTTCTAACCTGTTGCCTCG [TTATAAACTAG_LTGcore_CT_RTGcore_CG] (site TTATAAACTAG) (LTG core: CT, RTG core: CG) | 0.154 |
| TTATAAACTTGGGTTCTAACCTGTTGCCTGC [TTATAAACTAG_LTGcore_CT_RTGcore_GC] (site TTATAAACTAG) (LTG core: CT, RTG core: GC) | 0.178 |
| TTATAAACTTGGGTTCTAACCTGTTGCCTTG [TTATAAACTAG_LTGcore_CT_RTGcore_CA] (site TTATAAACTAG) (LTG core: CT, RTG core: CA) | 0.173 |
| TTATAAAGATGGGTTCTAACCTGTTGCCTTC [TTATAAACTAG_LTGcore_GA_RTGcore_GA] (site TTATAAACTAG) (LTG core: GA, RTG core: GA) | 0.0936 |
| TTATAAAGGTGGGTTCTAACCTGTTGCCTCC [TTATAAACTAG_LTGcore_GG_RTGcore_GG] (site TTATAAACTAG) (LTG core: GG, RTG core: GG) | 0.154 |
